For this assay, the target named is T1, LXRβ (Homo sapiens, UniProt P55055).
T1 construct: Co-transfection expression plasmids, comprising full-length LXRα (pCMX-h LXRα[…] or LXRβ (pCMX-hLXRβ)); expressed in transfected cells; host or cells: CV-1 African Green Monkey Kidney Cells
T1 sequence (P55055 1-460): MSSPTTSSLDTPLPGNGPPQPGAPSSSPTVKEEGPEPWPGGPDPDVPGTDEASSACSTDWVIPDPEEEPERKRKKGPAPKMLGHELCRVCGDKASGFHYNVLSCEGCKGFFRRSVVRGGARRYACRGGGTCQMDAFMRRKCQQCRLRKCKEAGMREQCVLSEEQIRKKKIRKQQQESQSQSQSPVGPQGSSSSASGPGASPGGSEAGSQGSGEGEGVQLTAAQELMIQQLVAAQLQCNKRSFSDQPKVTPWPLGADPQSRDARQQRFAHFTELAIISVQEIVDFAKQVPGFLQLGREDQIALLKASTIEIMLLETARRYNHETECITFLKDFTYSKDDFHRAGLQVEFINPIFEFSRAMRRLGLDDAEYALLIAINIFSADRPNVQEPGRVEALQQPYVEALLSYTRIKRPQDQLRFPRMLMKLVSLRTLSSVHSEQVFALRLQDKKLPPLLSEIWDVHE
T1 sequence (P19793 1-462 partner): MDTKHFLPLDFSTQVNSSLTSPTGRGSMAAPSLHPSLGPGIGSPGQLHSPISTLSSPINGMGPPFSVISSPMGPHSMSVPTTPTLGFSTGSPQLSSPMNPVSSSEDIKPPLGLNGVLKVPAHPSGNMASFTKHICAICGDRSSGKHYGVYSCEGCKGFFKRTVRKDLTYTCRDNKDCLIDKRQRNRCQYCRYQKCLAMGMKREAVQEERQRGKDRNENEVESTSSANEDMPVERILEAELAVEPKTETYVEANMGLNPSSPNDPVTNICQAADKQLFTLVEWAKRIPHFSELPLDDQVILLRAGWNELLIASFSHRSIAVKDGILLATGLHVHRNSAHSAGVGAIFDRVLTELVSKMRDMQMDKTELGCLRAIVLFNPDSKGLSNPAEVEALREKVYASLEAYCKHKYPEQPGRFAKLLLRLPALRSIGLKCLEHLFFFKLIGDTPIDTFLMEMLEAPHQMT
The experiment in a line: Co-transfection assay (LXRE luciferase reporter), LXRβ. As to conditions: for EC50: CV-1 cells transfected with pCMX-hLXRβ and LXREx1-Tk-Luciferase, 20 hours incubation; for Emax: LXRβ co-transfection, relative to high control 1-(2,4-difluorobenzyl)-2-oxo-6-(4-phenoxyphenyl)-4-(trifluoromethyl)-1,2-dihydropyridine-3-carbonitrile, read-out: % Efficacy. The class given is cell-based. In a few lines:
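CV-1 cells transiently co-transfected with full-length human LXRβ (or LXRα), LXREx1-Tk-luciferase reporter and β-galactosidase control; compound added (10 μM final in single-point, 11-point ½-log curves, ≤0.5% DMSO) for 20 h at 37 °C. Luciferase read; EC50 from four-parameter fit, efficacy relative to reference agonist high control.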
In general terms: Reporter assays use an easily measured gene product as a stand-in for the process of interest.

By EC50 is commonly meant the concentration giving half of the maximal effect. A low value points to higher potency in that assay. `Cc1nc(C(F)(F)F)cn1-c1ccc(-c2cc(F)c(CO)c(S(C)(=O)=O)c2)cc1-n1nncc1-c1ccc(Cl)c(Cl)c1` [Example 81, {3′-[5-(3,4-dichlorophenyl)-1H-1,2,3-triazol-1-yl]-3-fluoro-5-(methylsulfonyl)-4′-[2-methyl-4-(trifluoromethyl)-1H-imidazol-1-yl]biphenyl-4-yl}methanol]: a half-maximal effect (EC50) was put at 0.085 µM and the Emax was 99%.
The like results for `COC(=O)c1ccc(-c2cnnn2-c2cc(-c3cccc(S(C)(=O)=O)c3)ccc2-n2cc(C(F)(F)F)nc2C)cc1` [Example 82, methyl 4-(1-{3′-(methylsulfonyl)-4-[2-methyl-4-(trifluoromethyl)-1H-imidazol-1-yl]biphenyl-3-yl}-1H-1,2,3-triazol-5-yl)benzoate] were, in that order, 0.26 µM and 89%.
The like results for `Cc1cn(-c2ccc(-c3cccc(S(C)(=O)=O)c3)cc2-n2nncc2-c2ccc(OC(F)(F)F)cc2)c(C)n1` [Example 83, 1-[4-(2,4-dimethyl-1H-imidazol-1-yl)-3′-(methylsulfonyl)biphenyl-3-yl]-5-{4-[(trifluoromethyl)oxy]phenyl}-1H-1,2,3-triazole] were, in that order, 1.16 µM and 69%.
The corresponding values for `Cc1cn(-c2ccc(-c3cc(F)c(CO)c(S(C)(=O)=O)c3)cc2-n2nncc2-c2ccc(OC(F)(F)F)cc2)c(C)n1` [Example 84, [4′-(2,4-dimethyl-1H-imidazol-1-yl)-3-fluoro-5-(methylsulfonyl)-3′-(5-{4-[(trifluoromethyl)oxy]phenyl)-1H-1,2,3-triazol-1-yl)biphenyl-4-yl]methanol] are 0.852 µM and 96%.
For `CCOCc1ccc(-c2ccc(-n3cc(C(F)(F)F)nc3C)c(-n3nncc3-c3ccc(OC(F)(F)F)cc3)c2)cc1S(C)(=O)=O` [Example 85, 1-{4′-[(ethyloxy)methyl]-3′-(methylsulfonyl)-4-[2-methyl-4-(trifluoromethyl)-1H-imidazol-1-yl]biphenyl-3-yl}-5-{4-[(trifluoromethyl)oxy]phenyl}-1H-1,2,3-triazole], the response was half-maximal at 0.118 µM (EC50) and the Emax was 123%.
For the compound `Cc1nc(C(F)(F)F)cn1-c1ccc(-c2cccc(S(C)(=O)=O)c2)cc1-n1nncc1-c1ccc2occc2c1` [Example 86, 5-(1-benzofuran-5-yl)-1-{3′-(methylsulfonyl)-4-[2-methyl-4-(trifluoromethyl)-1H-imidazol-1-yl]biphenyl-3-yl}-1H-1,2,3-triazole], the midpoint of the response, the EC50, lay at 0.583 µM and the Emax stood at 77%.
The corresponding values for `Cc1nc(C(F)(F)F)cn1-c1ccc(-c2ccc(CNS(C)(=O)=O)c(S(C)(=O)=O)c2)cc1-n1nncc1-c1ccc(OC(F)(F)F)cc1` [Example 87, N-{[3-(methylsulfonyl)-4′-[2-methyl-4-(trifluoromethyl)-1H-imidazol-1-yl]-3′-(5-{4-[(trifluoromethyl)oxy]phenyl}-1H-1,2,3-triazol-1-yl)biphenyl-4-yl]methyl}methanesulfonamide] are 0.662 µM and 89%.
The like results for `COCc1c(F)cc(-c2ccc(-n3cc(C(F)(F)F)nc3C)c(-n3nncc3-c3ccc(OC(F)(F)F)cc3)c2)cc1S(C)(=O)=O` [Example 88, 1-{3′-fluoro-4′-[(methyloxy)methyl]-5′-(methylsulfonyl)-4-[2-methyl-4-(trifluoromethyl)-1H-imidazol-1-yl]biphenyl-3-yl}-5-{4-[(trifluoromethyl)oxy]phenyl}-1H-1,2,3-triazole] were, in that order, 0.306 µM and 111%.
The corresponding values for `COCc1ccc(-c2ccc(-n3cc(C(F)(F)F)nc3C)c(-n3nncc3-c3ccc(OC(F)(F)F)cc3)c2)cc1S(C)(=O)=O` [Example 89, 1-{4′-[(methyloxy)methyl]-3′-(methylsulfonyl)-4-[2-methyl-4-(trifluoromethyl)-1H-imidazol-1-yl]biphenyl-3-yl}-5-{4-[(trifluoromethyl)oxy]phenyl}-1H-1,2,3-triazole] are 0.316 µM and 83%.

For the origin of these results see patent publication US9834542B2, “LXR modulators” (BRISTOL-MYERS SQUIBB COMPANY, priority 2013, dated 2017).
